Source: patent US8987287B2, “Spirocyclic morphinans and their use” (Purdue Pharma L.P., priority 2012, dated 2015)

Tests used:
κ opioid receptor [1] = target: T1, κ opioid receptor (Homo sapiens (Human), UniProt P41145); experiment: κ-opioid receptor [35S]GTPγS functional assay, HEK-293 or CHO cells; assay type: biochemical
Procedure: (§1) κ-Opioid Receptor Functional Assay Procedures: Functional [^35S]GTPγS binding assays were conducted as follows. κ opioid receptor membrane solution was prepared by sequentially adding final concentrations of 0.026 μg/μl κ membrane protein (in-house), 10 μg/mL saponin, 3 μM GDP and 0.20 nM [^35S]GTPγS to binding buffer (100 mM NaCl, 10 mM MgCl2, 20 mM HEPES, pH 7.4) on ice. The prepared membrane solution (190 μl/well) was transferred to 96-shallow well polypropylene plates containing 10 μl of 20× concentrated stock solutions of agonist prepared in DMSO. Plates were incubated for 30 min at a temperature of about 25° C. with shaking. Reactions were terminated by rapid filtration onto 96-well Unifilter GF/B filter plates (Perkin Elmer, Shelton, Conn.) using a 96-well tissue harvester (Packard) and followed by three filtration washes with 200 μl ice-cold binding buffer (10 mM NaH2PO4, 10 mM Na2HPO4, pH 7.4). Filter plates were subsequently dried at 50° C. for 2-3 hours. Fifty μl/well scintillation cocktail (Perkin Elmer, Shelton, Conn.) was added and plates were counted in a Packard Top-Count for 1 min/well.
(§2) κ-Opioid Receptor Functional Data: κ GTP EC50 is the concentration of a compound providing 50% of the maximal response for the compound at a κ receptor.
(§3) κ GTP Emax (%) is the maximal effect elicited by a compound relative to the effect elicited by U69,593.
(§4) In TABLE 2, activity response of certain Compounds of the Invention to the μ-, δ- and κ-opioid receptors was determined as described above for functional assays using HEK-293 or CHO cells.

μ-opioid receptor [2] = target: T2, μ-opioid receptor (Homo sapiens (Human), UniProt P35372); experiment: μ-opioid receptor [35S]GTPγS functional assay, HEK-293 or CHO cells; assay type: biochemical
Procedure: (§5) μ-Opioid Receptor Functional Assay Procedures: [^35S]GTPγS functional assays were conducted using freshly thawed μ-receptor membranes prepared in-house from a cell line expressing recombinant μ opioid receptor in a HEK-293, CHO or U-2 OS cell background, or purchased from a commercial source (Perkin Elmer, Shelton, Conn.; or DiscovRx, Fremont, Calif.). Assay reactions were prepared by sequentially adding the following reagents to binding buffer (100 mM NaCl, 10 mM MgCl2, 20 mM HEPES, pH 7.4) on ice (final concentrations indicated): membrane protein (0.026 mg/mL), saponin ([…]), GDP ([…]) and [^35S]GTPγS (0.20 nM; Perkin Elmer, Shelton, Conn.). The prepared membrane solution (190 μl/well) was transferred to 96-shallow well polypropylene plates containing 10 μl of 20× concentrated stock solutions of the agonist [D-Ala^2, N-methyl-Phe^4 Gly-ol^5]-enkephalin (DAMGO) prepared in dimethyl sulfoxide (DMSO). Plates were incubated for 30 min at about 25° C. with shaking. Reactions were terminated by rapid filtration onto 96-well Unifilter GF/B filter plates (Perkin Elmer, Shelton, Conn.) using a 96-well tissue harvester (Perkin Elmer, Shelton, Conn.) followed by three filtration washes with 200 μl of ice-cold wash buffer (10 mM NaH2PO4, 10 mM Na2HPO4, pH 7.4). Filter plates were subsequently dried at 50° C. for 2-3 hours. BetaScint scintillation cocktail (Perkin Elmer, Shelton, Conn.) was added (50 μl/well) and plates were counted using a Packard Top-Count for 1 min/well. Data were analyzed using the sigmoidal dose-response curve fitting functions in GraphPad PRISM v. 3.0, or an in-house function for non-linear, sigmoidal dose-response curve-fitting.
(§6) μ-Opioid Receptor Functional Data: μ GTP EC50 is the concentration of a compound providing 50% of the maximal response for the compound at a μ-opioid receptor.
(§7) μ GTP Emax (%) is the maximal effect elicited by a compound relative to the effect elicited by DAMGO, a standard μ agonist. Generally, the μ GTP Emax (%) value measures the efficacy of a compound to treat or prevent pain or other Conditions.
as §4

κ opioid receptor [3] = target: T1, κ opioid receptor; experiment: κ-opioid receptor radioligand ([3H]-U69,593) dose-displacement binding assay; settings: binding affinity, read-out: Opioid Receptor Ki (nM) κ
Procedure: κ-Opioid Receptor Binding Assay Procedures: Membranes from recombinantHEK-293 cells, CHO or U-2 OS cells expressing the recombinant human κ opioid receptor (κ) were prepared by lysing cells in ice cold hypotonic buffer (2.5 mM MgCl2, 50 mM HEPES, pH 7.4) (10 mL/10 cm dish) followed by homogenization with a tissue grinder/Teflon pestle. Membranes were collected by centrifugation at 30,000×g for 15 min at 4° C. and pellets were resuspended in hypotonic buffer to a final concentration of 1-3 mg/mL. Protein concentrations were determined using the BioRad protein assay reagent with bovine serum albumen as standard. Aliquots of κ receptor membranes were stored at −80° C.
Radioligand dose displacement assays used 0.4 nM [^3H]-U69,593 (GE Healthcare, Piscataway, N.J.; 40 Ci/mmole) with 15 μg membrane protein (recombinant κ opioid receptor expressed in HEK 293 cells; in-house prep) in a final volume of 200 μl binding buffer (5% DMSO, 50 mM Trizma base, pH 7.4). Non-specific binding was determined in the presence of 10 μM unlabeled naloxone or U69,593. All reactions were performed in 96-well polypropylene plates for 1 hour at a temperature of about 25° C. Binding reactions were terminated by rapid filtration onto 96-well Unifilter GF/C filter plates (Perkin Elmer, Shelton, Conn.) presoaked in 0.5% polyethylenimine (Sigma). Harvesting was performed using a 96-well tissue harvester (Perkin Elmer, Shelton, Conn.) followed by five filtration washes with 200 μl ice-cold binding buffer. Filter plates were subsequently dried at 50° C. for 1-2 hours. Fifty μl/well scintillation cocktail (Perkin Elmer, Shelton, Conn.) was added and plates were counted in a Packard Top-Count for 1 min/well.
(§8) In TABLE 1, binding affinity of certain Compounds of the Invention to the μ-, δ- and κ-opioid receptors was determined as described above.

μ-opioid receptor [4] = target: T2, μ-opioid receptor; experiment: μ-opioid receptor radioligand ([3H]-diprenorphine) dose-displacement binding assay; settings: binding affinity, read-out: Opioid Receptor Ki (nM) μ
Procedure: μ-Opioid Receptor Binding Assay Procedures: Radioligand dose-displacement binding assays for μ-opioid receptors used 0.3 nM [^3H]-diprenorphine (Perkin Elmer, Shelton, Conn.), with […] membrane protein/well in a final volume of 500 μl binding buffer (10 mM MgCl2, 1 mM EDTA, 5% DMSO, 50 mM HEPES, pH 7.4). Reactions were carried out in the absence or presence of increasing concentrations of unlabeled naloxone. All reactions were conducted in 96-deep well polypropylene plates for 2 hours at room temperature. Binding reactions were terminated by rapid filtration onto 96-well Unifilter GF/C filter plates (Perkin Elmer, Shelton, Conn.), presoaked in 0.5% polyethylenimine using a 96-well tissue harvester (Perkin Elmer, Shelton, Conn.) followed by performing three filtration washes with 500 μl of ice-cold binding buffer. Filter plates were subsequently dried at 50° C. for 2-3 hours. BetaScint scintillation cocktail (Perkin Elmer, Shelton, Conn.) was added (50 μl/well), and plates were counted using a Packard Top-Count for 1 min/well. The data were analyzed using the one-site competition curve fitting functions in GraphPad PRISM™ v. 3.0 or higher (San Diego, Calif.), or an in-house function for one-site competition curve-fitting.
as §8

μ-opioid receptor [5] = target: T2, μ-opioid receptor; experiment: μ-opioid receptor [35S]GTPγS functional assay, U-2 OS cells; assay type: biochemical; settings: for Emax: relative to DAMGO, U-2 OS cells
Procedure: as §5, §6, §7
(§9) The following TABLE 3 provides results on the activity response of certain Compounds of the Invention at the μ- and κ-opioid receptors determined as described above using U-2 OS cells.

κ opioid receptor [6] = target: T1, κ opioid receptor; experiment: κ-opioid receptor [35S]GTPγS functional assay, U-2 OS cells; assay type: biochemical; settings: for Emax: relative to U69,593, U-2 OS cells
Procedure: as §1, §2, §3, §9

[7] = relative to U69,593, HEK-293 or CHO cells
[8] = relative to DAMGO, HEK-293 or CHO cells

| Compound | Ki (κ opioid receptor [3]) | EC50 (μ-opioid receptor [5]) | Emax (μ-opioid receptor [5]) | EC50 (κ opioid receptor [6]) | Emax (κ opioid receptor [6]) | further results |
| --- | --- | --- | --- | --- | --- | --- |
| COc1ccc2c(c1)[C@]13CCN(CC4CC4)[C@H](C2)[C@]1(O)CC[C@@]1(CNC(=O)N1)C3 [Compound 4, (4bR,4′S,8aS,9R)-11-(cyclopropylmethyl)-8a-hydroxy-3-methoxy-5,7,8,8a,9,10-hexahydrospiro[9,4b-(epiminoethano)phenanthrene-6,4′-imidazolidin]-2′-one] | 135 ± 38.1 nM | – | – | – | – | EC50 (κ opioid receptor [1]): 0.901 ± 0.389 µM; Emax (κ opioid receptor [1]; [7]): 44.3 ± 1.45%; EC50 (μ-opioid receptor [2]): 0.809 ± 0.143 µM; Emax (μ-opioid receptor [2]; [8]): 20.7 ± 0.67% |
| COc1ccc2c(c1)[C@]13CCN(CC4CC4)[C@H](C2)[C@@H]1CC[C@@]1(C3)NC(=O)NC1=O [Compound 6, (4bS,4′S,8aR,9R)-11-(cyclopropylmethyl)-3-methoxy-5,7,8,8a,9,10-hexahydrospiro[9,4b-(epiminoethano)phenanthrene-6,4′-imidazolidine]-2′,5′-dione] | 12.2 ± 2.61 nM | – | – | – | – | EC50 (κ opioid receptor [1]): 1.23 ± 0.38 µM; Emax (κ opioid receptor [1]; [7]): 89.7 ± 3.53%; EC50 (μ-opioid receptor [2]): 1.46 ± 0.121 µM; Emax (μ-opioid receptor [2]; [8]): 58.3 ± 5.24% |
| CN1CC[C@]23C[C@]4(CC[C@@]2(O)[C@H]1Cc1ccc(O)cc13)NC(=O)NC4=O [Compound 10, (4bR,4′S,8aS,9R)-3,8a-dihydroxy-11-methyl-5,7,8,8a,9,10-hexahydrospiro[9,4b-(epiminoethano)phenanthrene-6,4′-imidazolidine]-2′,5′-dione] | 155 ± 29.5 nM | – | – | – | – | Ki (μ-opioid receptor [4]): 27 ± 3.07 nM |
| O=C1NC(=O)[C@@]2(CC[C@@]3(O)[C@H]4Cc5ccc(O)cc5[C@@]3(CCN4CC3CC3)C2)N1CC1CC1 [Compound 65, (4S,4b′R,8a′S,9′R)-3,11′-bis(cyclopropylmethyl)-3′,8a′-dihydroxy-8′,8a′,9′,10′-tetrahydro-5′H,7′H-spiro[imidazolidine-4,6′-[9,4b](epiminoethano)phenantrene]-2,5-dione] | – | > 20 µM | 2% | 0.0364 ± 0.00708 µM | 92.3 ± 1.45% | – |
| CN1CC[C@]23C[C@@]4(CC[C@@]2(O)[C@H]1Cc1ccc(O)cc13)C(=O)NC(=O)N4CC1CC1 [Compound 66, (4bR,4′S,8aS,9R)-3′-(cyclopropylmethyl)-3,8a-dihydroxy-11-methyl-5,7,8,8a,9,10-hexahydrospiro[9,4b-(epiminoethano)phenanthren-6,4′-imidazolidine]-2′,5′-dione] | – | 0.076 ± 0.00231 µM | 98 ± 1.15% | 4.65 ± 0.302 µM | 103 ± 7.09% | – |
| O=C1NC(=O)[C@@]2(CC[C@@]3(O)[C@H]4Cc5ccc(O)cc5[C@@]3(CCN4CC3CC3)C2)N1Cc1ccccc1 [Compound 67, (4bR,4′S,8aS,9R)-3′-benzyl-11-(cyclopropylmethyl)-3,8a-dihydroxy-5,7,8,8a,9,10-hexahydrospiro[9,4b-(epiminoethano)phenanthrene-6,4′-imidazolidine]-2′,5′-dione] | – | 0.00938 ± 0.00076 µM | 20% | 0.0284 ± 0.00848 µM | 115 ± 4.84% | – |
| N#CCN1C(=O)NC(=O)[C@@]12CC[C@@]1(O)[C@H]3Cc4ccc(O)cc4[C@@]1(CCN3CC1CC1)C2 [Compound 68, 2-((4bR,4′S,8aS,9R)-11-(cyclopropylmethyl)-3,8a-dihydroxy-2,5-dioxo-5,7,8,8a,9,10-hexahydrospiro[9,4b-(epiminoethano)phenanthrene-6,4′-imidazolidin]-3′-yl)acetonitrile] | – | 0.00563 ± 0.00174 µM | 16 ± 1.15% | 0.00706 ± 0.00153 µM | 108 ± 6.89% | – |
| CCN1C(=O)NC(=O)[C@@]12CC[C@@]1(O)[C@H]3Cc4ccc(O)cc4[C@@]1(CCN3C)C2 [Compound 69, (4S,4b′R,8a′S,9′R)-3-ethyl-3′,8a′-dihydroxy-11′-methyl-8′,8a′,9′,10′-tetrahydro-5′H,7′H-spiro[imidazolidine-4,6′-[9,4b](epiminoethano)phenantrene]-2,5-dione] | – | 0.0436 ± 0.00297 µM | 97.3 ± 1.45% | 0.866 ± 0.0946 µM | 110 ± 8.5% | – |
| CN1CC[C@]23C[C@@]4(CC[C@@]2(O)[C@H]1Cc1ccc(O)cc13)C(=O)NC(=O)N4C [Compound 70, (4S,4b′R,8a′S,9′R)-3′,8a′-dihydroxy-3,11′-dimethyl-8′,8a′,9′,1′-tetrahydro-5′H,7′H-spiro[imidazolidine-4,6′-[9,4b](epiminoethano)phenantrene]-2,5-dione] | – | 0.0234 ± 0.00203 µM | 99 ± 1.53% | 0.322 ± 0.0281 µM | 118 ± 9.61% | – |
| (4bS,4′S,8aR,9R)-11-(cyclopropylmethyl)-3-hydroxy-5,7,8,8a,9,10-hexahydrospiro[9,4b-(epiminoethano)phenanthrene-6,4′-imidazolidin]-2′-one [Compound 8] | 0.2 ± 0.05 nM | – | – | – | – | EC50 (κ opioid receptor [1]; GTPγS, HEK-293 or CHO cells, read-out: Opioid Receptor κ EC50): 0.0272 ± 0.0081 µM; Opioid Receptor κ Emax (%) (κ opioid receptor [1]; [7]): 91.33 ± 5.04%; EC50 (μ-opioid receptor [2]; GTPγS, HEK-293 or CHO cells, read-out: Opioid Receptor μ EC50): 0.00739 ± 0.00189 µM; Opioid Receptor μ Emax (%) (μ-opioid receptor [2]; [8]): 39.67 ± 3.28% |
